For one data set, the system named is soybean plants. Nature of the data set: Spray test for tolerance to SU herbicide. Type of data set: in vivo. Conditions: 60 grams active ingredient per hectare. The procedure:
Soybean plants, transformed with either pZSL13 or pZSL14, were tested for tolerance to SU herbicide. A spray solution was made containing 60 grams of Thifensulfuron-methyl active ingredient per hectare and 0.25% wt/wt of AL-2999 nonionic surfactant. Thifensulfuron-methyl has the chemical name, methyl 3-[[[[(4-methoxy-6-methyl-1,3,5-triazin-2-yl)amino]carbonyl]amino]sulfonyl]-2-thiophenecarboxylate, and is the active ingredient in the two DuPont sulfonylurea herbicides, HARMONY GT® and PINNACLE®. Either HARMONY GT® or PINNACLE® can be used as the source of this sulfonylurea for the spray test. AL-2999 is a nonionic surfactant, obtainable as ATPLUS UCL 1007® from Uniqema. This mixture was evenly sprayed onto the soybean plants at the 1st or 2nd trifoliate stage of development. After waiting approximately two weeks the results were scored. All wild-type plants (or plants lacking the SAMS:herbicide-resistant ALS transgene) were dead (negative control), all plants from commercially available STS® (Sulfonylurea Tolerant Soybean) seeds were alive (positive control), and plants containing the SAMS:herbicide-resistant ALS transgene from either pZSL13 or pZSL14 also survived. Consequently, either the 1.3-kb (SEQ ID NO:6) or the 2.1-kb (SEQ ID NO:14) fragment from the SAMS gene can drive expression of the mutant ALS gene at levels sufficient to provide tolerance to SU.

The subject of the next data set is SAMS promoter. In words: Induction of SAMS promoter activity by methionine (GUS activity of SAMS::GUS seedlings). The data set is classed as in vivo, Arabidopsis. The procedure: (§1) To see if SAMS promoter is regulated by external methionine, the SAMS::GUS transgenic Arabidopsis seeds were germinated in the presence of either H2O, 1× Murashige and Skoog salt (GIBCO BRL), 0.01 mM methionine (Sigma), or 1 mM methionine. Ten days old seedlings from ten independent transgenic lines were analyzed for GUS activity according to the protocol described in Example 5.

In a further data set the test system is Arabidopsis seeds. How it is done:
as §1

The subject of data set [1] is transgenic Arabidopsis plants. In words: Fluorometric GUS assay of SAMS::GUS transgenic plants. Type of data set: in vivo, Arabidopsis thaliana. Conditions: developing seeds of SAMS::GUS Arabidopsis. The procedure:
FIG. 5 depicts a fluorometric GUS expression assay of transgenic Arabidopsis plants harboring the SAMS::GUS expression cassette. Triple samples of flowers, leaves, stems, siliques coats, young seeds, medium seeds, old seeds, and dry seeds collected from SAMS::GUS transgenic Arabidopsis plants were assayed for GUS activity. The graph was generated by Microsoft Excel and the standard deviation is indicated by the upper part of each column.
The activity of the soybean SAMS promoter was tested by its ability to express the GUS reporter gene in transgenic Arabidopsis plants carrying the SAMS promoter::GUS::3′ Nos expression casstette. […]
The GUS activities of the transgenic Arabidopsis plants were further analyzed by a fluorometric assay. For fluorescence analysis, plant tissues were ground in microfuge tubes with extraction buffer, 50 mM phosphate buffer, pH 7.0, 10 mM EDTA, 0.1% Triton X-100, 0.1% N-lauroyl sarcosine, and 10 mM β-mercaptoethanol, to homogeneity. The samples were centrifuged at 14,000 rpm for 10 minutes, and aliquots of the supernatant were used to determine protein concentrations by the Bradford method (Bio-Rad, Hercules, Calif.) using 96 well microtiter plates read with a kinetic microplate reader (Molecular Devices, Sunnyvale, Calif.). […] Data were entered into a Microsoft Excel spread sheet and analyzed. […]

As for `COC(=O)c1sccc1S(=O)(=O)NC(=O)Nc1nc(C)nc(OC)n1` [Thifensulfuron-methyl, methyl 3-[[[[(4-methoxy-6-methyl-1,3,5-triazin-2-yl)amino]carbonyl]amino]sulfonyl]-2-thiophenecarboxylate], the “Plant survival after spray” value with soybean plants (plants containing SAMS:herbicide-resistant ALS transgene from pZSL13 or pZSL14, approximately two weeks) is reported as “survived”; in the data set with soybean plants (plants from commercially available STS seeds, approximately two weeks), “alive”; in the data set on soybean plants (wild-type plants (lacking transgene), 0.25% AL-2999, scored after approximately two weeks), “dead”.

In the case of `CSCC[C@H](N)C(=O)O` [methionine], the “SAMS activity induced (GUS activity) compared to H2O treatment” value in the data set on SAMS promoter (0.01 mM free methionine, ten days old seedlings, ten transgenic lines) is “more than two-fold”. Further, the “Induction effect of SAMS promoter” value in the data set with SAMS promoter (1 mM methionine) is reported as “less than that by 0.01 mM methionine”. In addition, the “Toxic effect on seedlings” value in the data set with Arabidopsis seeds (1 mM methionine) is “smaller sizes and shorter roots of the seedlings”. The “Toxic effect on germination and survival” value in the data set on Arabidopsis seeds (10 mM free methionine) was “only a few Arabidopsis seeds were able to germinate and none survived”.

B1: SAMS promoter: soybean S-adenosyl-L-methionine synthetase promoter fragment, 1314 bp, SEQ ID NO:6 (nucleic acid)
DNA: TCTAGATCAAACTCACATCCAAACATAACATGGATATCTCCTTACCAATCATACTAATTATTTTGGGTTAAATATTAATCATTATTTTTAAGATATTAATTAAGAAATTAAAAGATTTTTTAAAAAAATGTATAAAATTATATTATTCATGATTTTTCATACATTTGATTTTGATAATAAATATATTTTTTTTAATTTCTTAAAAAATGTTGCAAGACACTTATTAGACATAGTCTTGTTCTGTTTACAAAAGCATTCATCATTTAATACATTAAAAAATATTTAATACTAACAGTAGAATCTTCTTGTGAGTGGTGTGGGAGTAGGCAACCTGGCATTGAAACGAGAGAAAGAGAGTCAGAACCAGAAGACAAATAAAAAGTATGCAACAAACAAATCAAAATCAAAGGGCAAAGGCTGGGGTTGGCTCAATTGGTTGCTACATTCAATTTTCAACTCAGTCAACGGTTGAGATTCACTCTGACTTCCCCAATCTAAGCCGCGGATGCAAACGGTTGAATCTAACCCACAATCCAATCTCGTTACTTAGGGGCTTTTCCGTCATTAACTCACCCCTGCCACCCGGTTTCCCTATAAATTGGAACTCAATGCTCCCCTCTAAACTCGTATCGCTTCAGAGTTGAGACCAAGACACACTCGTTCATATATCTCTCTGCTCTTCTCTTCTCTTCTACCTCTCAAGGTACTTTTCTTCTCCCTCTACCAAATCCTAGATTCCGTGGTTCAATTTCGGATCTTGCACTTCTGGTTTGCTTTGCCTTGCTTTTTCCTCAACTGGGTCCATCTAGGATCCATGTGAAACTCTACTCTTTCTTTAATATCTGCGGAATACGCGTTGGACTTTCAGATCTAGTCGAAATCATTTCATAATTGCCTTTCTTTCTTTTAGCTTATGAGAAATAAAATCATTTTTTTTTATTTCAAAATAAACCTTGGGCCTTGTGCTGACTGAGATGGGGTTTGGTGATTACAGAATTTTAGCGAATTTTGTAATTGTACTTGTTTGTCTGTAGTTTTGTTTTGTTTTCTTGTTTCTCATACATTCCTTAGGCTTCAATTTTATTCGAGTATAGGTCACAATAGGAATTCAAACTTTGAGCAGGGGAATTAATCCCTTCCTTCAAATCCAGTTTGTTTGTATATATGTTTAAAAAATGAAACTTTTGCTTTAAATTCTATTATAACTTTTTTTATGGCAAAAATTTTTGCATGTGTCTTTGCTCTCCTGTTGTAAATTTACTGTTTAGGTACTAACTCTAGGCTTGTTGTGCAGTTTTTGAAGTATAACCATGG
modifications: Glycine max
Take B1: in data set [1], the GUS specific activities is listed as 5-40 pmole 4-Mu (4-methylumbelliferone) per microgram protein per minute.

The values are drawn from US7834242B2, “S-adenosyl-L-methionine synthetase promoter and its use in expression of transgenic genes in plants” (E. I. du Pont de Nemours and Company, priority 2003, dated 2010).
